From patent US20150080580A1, “THIOUREA DERIVATIVES AS a-CHYMOTRYPSIN INHIBITORS” (priority 2013, published 2015) come the findings set out here.

In general, IC50 refers to the concentration that gives 50% inhibition. One may read the GI50 as the concentration giving 50% growth inhibition. The term Ki denotes the dissociation constant of the complex between target and ligand, obtained from inhibition or displacement.

For series [1], the target named is T1, α-Chymotrypsin (Bos taurus, UniProt P00766).
T1 construct: purchased Sigma-Aldrich (USA) C4129; host or cells: bovine pancreas
In words: α-Chymotrypsin inhibition assay (SPpNA substrate, absorbance at 410 nm). It counts as biochemical, bovine. The following applies: for IC50: α-chymotrypsin, substrate SPpNA 0.4 mM, pH 7.6, 30° C., n = 3. The procedure: (§1) α-Chymotrypsin (bovine pancreas, C4129) and N-succinyl-L-phenylalanine-p-nitroaniline (S2628) were purchased from Sigma-Aldrich (USA). Chymostatin (152845) from MP Biomedicals, LLC, USA, Tris(hydroxymethyl)aminomethane from Scharlau Chemie Barcelona, Spain and all other reagents were obtained from E. Merck and were of analytical grade. All other solvents and reagents were of analytical grade and used directly without purification.
This was performed in 50 mM Tris-HCl buffer pH 7.6 with 10 mM CaCl2. α-Chymotrypsin (12 units/mL prepared in 50 mM Tris-HCl buffer) with the different concentration of test compounds prepared in DMSO. It was then incubated at 30° C. for 25 min. The reaction was started by the addition of the substrate, N-succinyl-L-phenylalanine-p-nitroanilide (final concentration of 0.4 mM, prepared in the buffer as mentioned above). The change in absorbance due to released p-nitroaniline was continuously monitored at 410 nm (Choudhary et al., 2011). All the experiments were in a final volume of 200 μL in triplicate, and data was taken using a micro-plate reader (SpectraMax M2, Molecular Devices, Calif., USA).
The results were processed by using SoftMax Pro 4.8 then analyzed by MS Excel software. The % of inhibition based upon initial velocity and calculated as: […]
IC50 (Inhibition of enzymatic hydrolysis of the substrate SPpNA by 50%) value was calculated using EZ-Fit software (Perellela Scientific, Inc., Amherst, Mars, USA).

Series [2] in a line: Cell proliferation inhibition (cytotoxicity) MTT assay for 3T3 cell line. The following applies: 3T3 mouse fibroblast cells; 3T3 mouse fibroblasts, MTT, 72 hrs, n = 3; read-out: 3T3 cell-line GI50 ± SEM. Format: cell-based, Mouse. How it is done: It was evaluated by using the MTT (3-[4,5-dimethylthiazole-2-yl]-2,5-diphenyl-tetrazolium bromide) assay (Mosmann, 1983). The 3T3 cell-lines (Mouse Fibroblasts) were cultured in Dulbecco's Modified Eagle's Medium, which was later supplemented with 5% of bovine serum, 100 IU/mL of penicillin, and 100 μg/mL of streptomycin, in 5% CO2 incubator at 37° C. Exponentially growing cell, 1×10^4 cells/well incorporated into each well of 96-well plates. Then, fresh the medium containing different concentrations of compounds were loaded in each well after 24 hours. Again, after 72 hrs, fresh the medium containing 0.5 mg/mL MTT were loaded in each well, and incubated further for 4 hrs. Subsequently, the media containing MTT was replaced by 100 μL of DMSO for 15 min, and then the absorbance was taken at 570 nm.
For orientation: Tetrazolium assays rely on reduction of a dye to a coloured formazan, in cell work by metabolically active cells.

Series [3] concerns the target T1, α-Chymotrypsin. Description: α-Chymotrypsin inhibition kinetic study (Lineweaver-Burk, Dixon, Hanes-Woolf plots). It counts as biochemical, bovine. The following applies: for Type of inhibition: from Lineweaver-Burk, Dixon and Hanes-Woolf plots; for Ki: substrate SPpNA 0.4-3.2 mM, n = 3, read-out: Ki ± SEM.
Excerpt: as §1
The change in concentration of the substrate/product (rate of reaction) was measured as optical density per minute (OD/min). This OD/min was obtained by incorporating different concentrations of compounds over substrate (SPpNA) concentrations between 0.4 mM and 3.2 mM in micro-plate reader. Reciprocal of OD/min against the reciprocal of the substrate concentration, defined as Lineweaver-Burk plot (and its secondary plot; slope vs compound concentration); the Dixon plot (and its secondary plot; slope vs reciprocal of compound concentration) and then Hanes-Woolf plot were plotted (Lineweaver et al., 1934; Dixon, 1953; Segel, 1993) Graphs were plotted using GraFit 4 (Erithacus Software Limited, Surrey, UK) and GraphPad Prism 5 (GraphPad Software, California, USA). The types of inhibition were determined by the graphical views of Dixon plots, Lineweaver-Burk plots and their secondary plots as well as Hanes-Woolf plot. The Ki values, obtained directly from the software, also were cross-checked and tallied in these graphs. Final concentration of DMSO was maintained 5.5%.

In the case of `S=C(Nc1ccc(Cl)cc1)Nc1cccc(Cl)c1` [Compound 1, 1-(3-Chlorophenyl)-3-(4-chlorophenyl) thiourea], on α-Chymotrypsin [1], the IC50 was found to be 11.6 µM. Also, in series [2], the concentration for 50% growth inhibition (GI50) at 72 h was above 30 µM. In addition, at α-Chymotrypsin [3], the Type of inhibition result is reported as “mixed-type” and the Ki amounted to 8.6 ± 0.8 µM.

On α-Chymotrypsin [1], `S=C(Nc1cccnc1)Nc1cccc(Cl)c1` [Compound 19, 1-(3-Chlorophenyl)-3-(pyridin-3-yl) thiourea] registered an IC50 of 199 µM. The GI50 at 72 h in series [2] is above 30 µM. In addition, on α-Chymotrypsin [3], the Type of inhibition result is “Competitive” and the Ki worked out at 166 ± 5.9 µM.

For `Cc1ccc(C)c(NC(=S)Nc2cccc(Cl)c2)c1` [Compound 14, 1-(3-Chlorophenyl)-3-(2,5-dimethylphenyl) thiourea], the half-maximal inhibitory concentration (IC50) on α-Chymotrypsin [1] was 151 ± 8.8 µM. Moreover, the concentration for 50% growth inhibition (GI50) at 72 h in series [2] was above 30 µM. For the same compound, at α-Chymotrypsin [3], the Type of inhibition result is “Competitive” and the Ki turned out to be 107 ± 5.5 µM.

`Fc1ccc(NC(=S)Nc2cccc(Cl)c2)cc1F` [Compound 11, 1-(3-Chlorophenyl)-3-(3,4-difluorophenyl) thiourea] yielded an IC50 at α-Chymotrypsin [1] of 66.9 ± 4.9 µM. In series [2], the 50% growth inhibitory concentration (GI50) at 72 h was above 30 µM. On α-Chymotrypsin [3], the Type of inhibition result is given as “Competitive” and the Ki is 49.8 ± 2.6 µM.

Take `Cc1cccnc1NC(=S)Nc1cccc(Cl)c1` [Compound 25, 1-(3-Chlorophenyl)-3-(3-methylpyridin-2-yl)thiourea]: the IC50 against α-Chymotrypsin [1] was above 500 µM.

For `S=C(Nc1ccccc1)Nc1cccc(Br)c1` [Compound 21, 1-(3-Bromophenyl)-3-phenylthiourea], the midpoint of inhibition at α-Chymotrypsin [1], the IC50, lay at 79.2 ± 0.6 µM. In series [2], the GI50 at 72 h is above 30 µM. Also, at α-Chymotrypsin [3], the Type of inhibition result is “Mixed” and the Ki was 60.8 ± 7.4 µM.

Take `S=C(Nc1cccc(Cl)c1)Nc1cccnc1Cl` [Compound 26, 1-(3-Chlorophenyl)-3-(2-chloropyridin-3-yl)thiourea]: the half-inhibitory concentration (IC50) at α-Chymotrypsin [1] was above 500 µM.

For `S=C(Nc1cccc(Cl)c1)Nc1ccccc1Cl` [Compound 23, 1-(2-Chlorophenyl)-3-(3-chlorophenyl) thiourea], on α-Chymotrypsin [1], the “α-chymotrypsin inhibition (in words)” value is reported as “failed to show any inhibition” and the IC50 is above 500 µM.

On α-Chymotrypsin [1], `COc1ccc(NC(=S)Nc2cccc(Cl)c2)cc1` [Compound 6, 1-(3-Chlorophenyl)-3-(4-methoxyphenyl) thiourea] returned a half-maximal inhibitory concentration (IC50) of 34.3 ± 2.8 µM. Moreover, the GI50 at 72 h in series [2] was above 30 µM. On α-Chymotrypsin [3], the Type of inhibition entry was “Mixed” and the inhibition constant (Ki) came out at 25.6 ± 0.9 µM.

As to `Cc1cccc(C)c1NC(=S)Nc1cccc(Cl)c1` [Compound 24, 1-(3-Chlorophenyl)-3-(2,6-dimethylphenyl) thiourea], the IC50 against α-Chymotrypsin [1] is above 500 µM.

As to `S=C(Nc1cccc(Cl)c1)Nc1cccc(Cl)c1Cl` [Compound 13, 1-(3-chlorophenyl)-3-(2,3-dichlorophenyl) thiourea], the half-inhibitory concentration (IC50) against α-Chymotrypsin [1] worked out at 107 ± 9.1 µM. In addition, in series [2], the GI50 at 72 h was above 30 µM. Besides, on α-Chymotrypsin [3], the Type of inhibition result is reported as “Competitive” and the Ki came out at 87.3 ± 6.7 µM.

`S=C(NCc1ccncc1)Nc1cccc(Cl)c1` [Compound 18, 1-(3-Chlorophenyl)-3-(pyridin-4-ylmethyl)thiourea] came in with an IC50 at α-Chymotrypsin [1] of 186 ± 12.8 µM. In series [2], the GI50 at 72 h is above 30 µM. In addition, on α-Chymotrypsin [3], the Type of inhibition entry is listed as “Competitive” and the inhibition constant (Ki) was found to be 148 ± 4.8 µM.

In turn, `S=C(NCc1cccnc1)Nc1ccccc1` [Compound 34, 1-Phenyl-3-(pyridin-3-ylmethyl)thiourea] came in with an IC50 at α-Chymotrypsin [1] above 500 µM.

Turning to `S=C(Nc1ccccc1)Nc1ccncc1` [Compound 30, 1-Phenyl-3-(pyridin-4-yl) thiourea], the IC50 on α-Chymotrypsin [1] is above 500 µM.

Regarding `Cc1ccc(NC(=S)Nc2cccc(Cl)c2)c(C)c1` [Compound 15, 1-(3-Chlorophenyl)-3-(2,4-dimethylphenyl) thiourea], at α-Chymotrypsin [1], the IC50 amounted to 192 ± 9.2 µM. The GI50 at 72 h in series [2] is above 30 µM. Further, at α-Chymotrypsin [3], the Type of inhibition result was “Non- Competitive” and the Ki worked out at 173 ± 7.9 µM.

`S=C(Nc1cccc(Cl)c1)Nc1c(Cl)cccc1Cl` [Compound 16, 1-(3-Chlorophenyl)-3-(2,6-dichlorophenyl) thiourea] registered an IC50 on α-Chymotrypsin [1] of 247.3 ± 1.7 µM. The GI50 at 72 h in series [2] is above 30 µM. At α-Chymotrypsin [3], the Type of inhibition result is given as “Competitive” and the Ki worked out at 210 ± 11.8 µM.

As for `Fc1ccc(NC(=S)Nc2cccc(Cl)c2)cc1` [Compound 12, 1-(3-Chlorophenyl)-3-(4-fluorophenyl) thiourea], the concentration for half-maximal inhibition (IC50) against α-Chymotrypsin [1] was 68.4 ± 8.5 µM. Besides, in series [2], the GI50 at 72 h is above 30 µM. Further, at α-Chymotrypsin [3], the Type of inhibition result is listed as “Competitive” and the Ki stood at 62.5 ± 2.5 µM.

As for `Fc1ccc(NC(=S)Nc2ccccc2)c(F)c1` [Compound 22, 1-(2,4-Difluorophenyl)-3-phenylthiourea], the IC50 at α-Chymotrypsin [1] was 193 ± 1 µM. The 50% growth inhibitory concentration (GI50) at 72 h in series [2] is above 30 µM. At α-Chymotrypsin [3], the Type of inhibition result was “Competitive” and the Ki turned out to be 142 ± 5 µM.

`COc1cccc(NC(=S)Nc2cccc(Cl)c2)c1` [Compound 4, 1-(3-Chlorophenyl)-3-(3-methoxyphenyl) thiourea] came in with an IC50 against α-Chymotrypsin [1] of 25.4 ± 0.2 µM. In addition, the GI50 at 72 h in series [2] is above 30 µM. At α-Chymotrypsin [3], the Type of inhibition result was “Mixed” and the Ki worked out at 21.2 ± 1.5 µM.

Consider `Cc1cccnc1NC(=S)Nc1ccccc1` [Compound 31, 1-(3-Methylpyridin-2-yl)-3-phenylthiourea], for which the IC50 on α-Chymotrypsin [1] was above 500 µM.

Compound `S=C(Nc1cccc(Cl)c1)Nc1cccc(Cl)c1` [Compound 3, 1,3-Bis(3-chlorophenyl) thiourea] yielded an IC50 against α-Chymotrypsin [1] of 23.3 µM. Moreover, the GI50 at 72 h in series [2] is above 30 µM. Further, on α-Chymotrypsin [3], the Type of inhibition result is listed as “Mixed” and the Ki came to 15.9 ± 1.5 µM.

Consider `S=C(NCc1ccncc1)Nc1ccccc1` [Compound 35, 1-Phenyl-3-(pyridin-4-ylmethyl)thiourea], for which the half-maximal inhibitory concentration (IC50) against α-Chymotrypsin [1] is above 500 µM.

`S=C(Nc1ccccc1)Nc1ccc(Br)cc1` [Compound 20, 1-(4-Bromophenyl)-3-phenylthiourea] yielded an IC50 on α-Chymotrypsin [1] of 45.7 ± 2.9 µM. Moreover, the GI50 at 72 h in series [2] is above 30 µM. Moreover, on α-Chymotrypsin [3], the Type of inhibition entry is “competitive-type” and the Ki was 21.1 ± 2.5 µM.

With `COc1ccc(OC)c(NC(=S)Nc2ccccc2)c1` [Compound 27, 1-(2,5-Dimethoxyphenyl)-3-phenylthiourea], at α-Chymotrypsin [1], the IC50 was above 500 µM.

`S=C(Nc1ccccc1)Nc1cccnc1Cl` [Compound 33, 1-(2-Chloropyridin-3-yl)-3-phenylthiourea]: the IC50 at α-Chymotrypsin [1] was above 500 µM.

At α-Chymotrypsin [1], `S=C(Nc1ccccc1)Nc1ccccn1` [Compound 28, 1-Phenyl-3-(pyridin-2-yl) thiourea] came in with an IC50 above 500 µM.

The compound `Cc1cccc(NC(=S)Nc2cccc(Cl)c2)c1` [Compound 10, 1-(3-Chlorophenyl)-3-m-tolylthiourea] registered an IC50 on α-Chymotrypsin [1] of 48.5 ± 1.7 µM. Besides, the concentration for 50% growth inhibition (GI50) at 72 h in series [2] was above 30 µM. Also, on α-Chymotrypsin [3], the Type of inhibition entry is recorded as “Mixed” and the Ki is 31.6 ± 1.8 µM.

The compound `S=C(Nc1cccc(Cl)c1)Nc1ccc(Cl)c(Cl)c1` [Compound 2, 1-(3-Chlorophenyl)-3-(3,4-dichlorophenyl) thiourea] registered an IC50 against α-Chymotrypsin [1] of 18.8 ± 0.2 µM. Further, in series [2], the GI50 at 72 h is above 30 µM. Besides, at α-Chymotrypsin [3], the Type of inhibition result is listed as “non-competitive-type” and the Ki was found to be 15.5 ± 0.4 µM.

Take `S=C(Nc1ccccc1)Nc1cccnc1` [Compound 29, 1-Phenyl-3-(pyridin-3-yl) thiourea]: at α-Chymotrypsin [1], the “α-chymotrypsin inhibition (in words)” value is “inactive” and the IC50 was above 500 µM.

`Cc1ccc(NC(=S)Nc2ccccc2)nc1C` [Compound 32, 1-(5,6-Dimethylpyridin-2-yl)-3-phenylthiourea] returned an IC50 against α-Chymotrypsin [1] above 500 µM.
